Assay results from patent US5817669A, “Compounds, processes for the preparation thereof and anti-tumor agents” (Dainippon Pharmaceutical Co., Ltd., priority 1994, dated 1998).
In brackets after ≈: the same amount, converted by molar mass. Like-named read-outs stand apart in the source and are kept apart here.

Columns and labels:
HMV2 human melanoma = test: In vitro anti-tumor activity against HMV-2 human melanoma (MTT); type: cell-based; settings: HMV-2, 72 h, MTT, read-out: IC50
Experimental: (§1) A culture medium containing 500 to 2,000 human cancer cells was put in an amount of 0.1 ml in each well of 96-well plate, and the cells were cultured for 20 hours under a condition of 37° C. and 5% carbon dioxide gas in air. After the culturing, a solution of test compounds of predetermined concentration was added, and then, the cells were cultured for further 72 hours. After the culturing, an MTT (5 mg/ml) solution was added in an amount of 0.01 ml in the respective wells, and the cells were cultured for further 4 hours. The supernatants of the culture medium were removed by suction, and then, 0.1 ml of dimethyl sulfoxide was put in respective well to dissolve the formed formazan, and, moreover, 0.1 ml of dimethyl sulfoxide was added.

C33A human cervix cancer = test: In vitro anti-tumor activity against C-33A human cervix cancer (MTT); type: cell-based; settings: C-33A, 72 h, MTT, read-out: IC50
Experimental: as §1

[1] = tested on: AZ521 human stomach cancer; test: In vitro anti-tumor activity against AZ-521 human stomach cancer (MTT); type: cell-based; settings: AZ-521, 72 h, MTT, read-out: IC50
Experimental: as §1

[2] = tested on: MKN45 human stomach cancer; test: In vitro anti-tumor activity against MKN45 human stomach cancer (MTT); type: cell-based; settings: MKN-45, MKN45, 72 h, MTT, read-out: IC50
Experimental: as §1

[3] = tested on: murine P388 lymphocytic leukemia cells; test: In vitro anti-tumor activity against murine P388 lymphocytic leukemia cells (MTT, 72 h); type: cell-based; settings: Mus musculus; murine P388 cells, 72 h, MTT; read-out: IC50 (50% proliferation inhibitory concentration)
Experimental: Test compounds were tested for anti-tumor activity according to MTT [3-(4,5-dimethylthiazol-2-yl)-2,5-diphenyltetrazolium bromide] method, using murine P388 lymphocytic leukemia cells. […] The culture medium was centrifuged (4° C., 2,000 rpm for 20 minutes), and thus, the supernatants were removed by suction. Then, 0.1 ml of dimethyl sulfoxide was put in each well to dissolve the formed formazan, and, subsequently, another 0.1 ml of dimethyl sulfoxide was added. The absorbance (OD) of each of the obtained solutions was measured by use of Multiskan Bichromatic (main wavelength 570 nm, sub-wavelength 690 nm). […] IC50 :μg/ml) were calculated by the least squares method.

[4] = tested on: murine P388 lymphocytic leukemia cells; test: Increases in life span of mice implanted with murine P388 lymphocytic leukemia cells; type: in vivo, SLC: BDF1 mice; settings: ip; for ILS at 3.13 mg/kg / ILS at 12.5 mg/kg / ILS at 50 mg/kg / ILS at 1.56 mg/kg / ILS at 6.25 mg/kg / ILS at 25 mg/kg: Mus musculus, P388, ip, 720 h
Experimental: 1×10^6 murine P388 lymphocytic leukemia cells were intraperitoneally implanted in each of SLC: BDF1 mice (8 to 10 weeks old, female, 7 animals per one group). A test compound (drug) was either dissolved in 0.1 N--NaOH or suspended in 0.4% carboxymethylcellulose solution, and the resultant solution or suspension was diluted with distilled water or 0.4% carboxymethylcellulose solution so as to give predetermined concentrations for administration. The obtained solution was intraperitoneally (ip) administered twice, namely on the day following the implantation (1st day) and the 5th day, each 0.2 ml. The life and death of the mice were observed over a period of 30 days, and the median survival time (hereinafter referred to as MST) was determined for each group, and, thus, the increase in life span (ILS; %) was calculated according to the following equation:
ILS (%)=[{(MST of the test group)/(MST of the control group)}-1]×100
Drug effect was judged in the following manner, according to the criterion of U.S. National Cancer Institute (NCI):
ILS=75% or higher: ++ (remarkably effective);
20 to 74%: + (effective);
19% or lower: - (ineffective)

A427 human lung cancer = test: In vitro anti-tumor activity against A-427 human lung cancer (MTT); type: cell-based; settings: A-427, 72 h, MTT, read-out: IC50
Experimental: as §1

[5] = tested on: WiDr human colorectal cancer; test: In vitro anti-tumor activity against WiDr human colorectal cancer (MTT); type: cell-based; settings: 72 h, MTT, read-out: IC50
Experimental: as §1

[6] = tested on: colon 26 murine tumor cells; test: Tumor growth inhibition effect on colon 26 murine tumor cells implanted mice; type: in vivo, SLC: CDF1 mice; settings: for inhibition in vivo at 1.56 mg/kg: 1.56 mg/kg once a day; for inhibition in vivo at 3.13 mg/kg: 3.13 mg/kg once a day
Experimental: A 2% brei of colon 26 murine tumor cells was intracutaneously implanted each 0.1 ml in the abdominal part of SLC: CDF1 female mice (7 to 9 weeks old, 7 animals per one group). […] The obtained solutions were intraperitoneally (ip) administered each 0.2 ml once a day, from the day (1st day) following the implantation to the 9th day. On the 21st or 22nd day after the implantation, tumor weight was estimated from tumor diameters, and thus, the tumor growth inhibition rate (IR %) of the drug administered group in comparison with the control group was calculated according to the following equation. IR (%)=[1-{(MTW in the treated group)/(MTW in the control group)}]×10 0 MTW: mean tumor weight

[7] = tested on: KB human nasopharynx cancer; test: In vitro anti-tumor activity against KB human nasopharynx cancer (MTT); type: cell-based; settings: KB, 72 h, MTT, read-out: IC50
Experimental: as §1

[8] = NCI criterion, 3.13 mg/kg, read-out: Evaluation
[9] = NCI criterion, 12.5 mg/kg, read-out: Evaluation
[10] = NCI criterion, read-out: Evaluation
[11] = 3.13 mg/kg, days 1 and 5, in suspension, read-out: ILS (%) (in suspension)
[12] = 12.5 mg/kg, days 1 and 5, in suspension, read-out: ILS (%) (in suspension)
[13] = days 1 and 5, in suspension, read-out: ILS (%) (in suspension)
[14] = Mus musculus, Colon 26, 504 h, ip, days 1-9, day 21 or 22, read-out: Tumor growth inhibition rate IR (%)
[15] = NCI criterion, 25 mg/kg, read-out: Evaluation
[16] = days 1 and 5, in solution, read-out: ILS (%) (in solution)
[17] = 12.5 mg/kg, days 1 and 5, in solution, read-out: ILS (%) (in solution)
[18] = 25 mg/kg, days 1 and 5, in solution, read-out: ILS (%) (in solution)

Structure (SMILES) | IC50 (HMV2 human melanoma) | IC50 (C33A human cervix cancer) | IC50 [1] | IC50 [2] | IC50 [3] | ILS at 3.13 mg/kg [4, 8] | ILS at 12.5 mg/kg [4, 9] | ILS at 50 mg/kg [4, 10] | ILS at 3.13 mg/kg [4, 11] | ILS at 12.5 mg/kg [4, 12] | ILS at 50 mg/kg [4, 13] | IC50 (A427 human lung cancer) | IC50 [5] | inhibition in vivo at 1.56 mg/kg [6, 14] | inhibition in vivo at 3.13 mg/kg [6, 14] | IC50 [7] | ILS at 25 mg/kg [4, 15] | ILS at 12.5 mg/kg [4, 17] | ILS at 25 mg/kg [4, 18] | ILS at 50 mg/kg [4, 16] | other results
C[C@@H]1CN(c2ccc3c(=O)c(C(=O)O)cn(-c4nccs4)c3n2)C[C@H]1N (relative stereo) [Compound 7] | 0.139 µg/mL (≈ 0.374 µM) | 0.105 µg/mL (≈ 0.283 µM) | 0.0719 µg/mL (≈ 0.194 µM) | 0.112 µg/mL (≈ 0.302 µM) | 0.00955 µg/mL (≈ 0.0257 µM) | > 75% | > 75% | > 75% | 75% | 100% | 188% | 0.0933 µg/mL (≈ 0.251 µM) | 0.314 µg/mL (≈ 0.845 µM) | 61% | 95% | 0.111 µg/mL (≈ 0.299 µM) | – | – | – | – | –
CNC1CCN(c2ccc3c(=O)c(C(=O)O)cn(-c4nccs4)c3n2)C1 (centres unmarked) [Compound 6] | 0.122 µg/mL (≈ 0.328 µM) | 0.156 µg/mL (≈ 0.42 µM) | 0.0622 µg/mL (≈ 0.167 µM) | 0.16 µg/mL (≈ 0.431 µM) | 0.0105 µg/mL (≈ 0.0283 µM) | > 75% | > 75% | > 75% | 100% | 200% | > 275% | 0.0832 µg/mL (≈ 0.224 µM) | 0.381 µg/mL (≈ 1.03 µM) | 71% | – | 0.0987 µg/mL (≈ 0.266 µM) | > 75% | 150% | 225% | – | ILS at 1.56 mg/kg [4, 10]: 20 to 74%; ILS at 6.25 mg/kg ([4]; NCI criterion, 6.25 mg/kg, read-out: Evaluation): > 75%; ILS at 1.56 mg/kg [4, 16]: 63%; ILS at 3.13 mg/kg ([4]; 3.13 mg/kg, days 1 and 5, in solution, read-out: ILS (%) (in solution)): 100%; ILS at 6.25 mg/kg ([4]; 6.25 mg/kg, days 1 and 5, in solution, read-out: ILS (%) (in solution)): 138%
O=C(O)c1cn(-c2nccs2)c2nc(N3CCCC3)c(F)cc2c1=O [Compound A, reference compound] | 2.88 µg/mL (≈ 7.99 µM) | 0.651 µg/mL (≈ 1.81 µM) | 0.797 µg/mL (≈ 2.21 µM) | 1.27 µg/mL (≈ 3.52 µM) | 0.0942 µg/mL (≈ 0.261 µM) | – | – | 20 to 74% | – | – | – | 0.854 µg/mL (≈ 2.37 µM) | 4.09 µg/mL (≈ 11.3 µM) | – | – | 1.94 µg/mL (≈ 5.38 µM) | 20 to 74% | 0% | 25% | 38% | inhibition in vivo at 12.5 mg/kg ([6]; Mus musculus, Colon 26, 504 h, ip, 12.5 mg/kg once a day, days 1-9, day 21 or 22, read-out: Tumor growth inhibition rate IR (%)): 23%; tumor growth inhibition (IR), colon 26, in words ([6]; in words): apparently inferior to the compounds of this invention in view of both doses and inhibition rates
CN[C@@H]1CN(c2ccc3c(=O)c(C(=O)O)cn(-c4nccs4)c3n2)C[C@H]1OC.Cl (single isomer, unassigned) [Compound 1-3, (-)-1,4-Dihydro-7-(trans-3-methoxy-4-methylamino-1-pyrrolidinyl)-4-oxo-1-(2-thiazolyl)-1,8-naphthyridine-3-carboxylic acid hydrochloride] | 0.234 µg/mL | 0.148 µg/mL | 0.11 µg/mL | 0.222 µg/mL | 0.02 µg/mL | – | – | > 75% | – | – | 200% | 0.107 µg/mL | 0.503 µg/mL | 50% | – | 0.208 µg/mL | – | – | – | > 275% | Evaluation ([4]; NCI criterion, 3.13 mg/kg): + (20 to 74%: + (effective)); Evaluation ([4]; NCI criterion, 6.25 mg/kg): ++ (ILS=75% or higher: ++ (remarkably effective)); Evaluation ([4]; NCI criterion, 12.5 mg/kg): ++ (ILS=75% or higher: ++ (remarkably effective)); Evaluation ([4]; NCI criterion, 25 mg/kg): ++ (ILS=75% or higher: ++ (remarkably effective)); ILS (%) (in solution) ([4]; 3.13 mg/kg, days 1 and 5, in solution): 63%; ILS (%) (in suspension) ([4]; 3.13 mg/kg, days 1 and 5, in suspension): 63%; ILS (%) (in solution) ([4]; 6.25 mg/kg, days 1 and 5, in solution): 88%; ILS (%) (in solution) ([4]; 12.5 mg/kg, days 1 and 5, in solution): 138%; ILS (%) (in suspension) ([4]; 12.5 mg/kg, days 1 and 5, in suspension): 125%; ILS (%) (in solution) ([4]; 25 mg/kg, days 1 and 5, in solution): 200%; inhibition in vivo at 2.21 mg/kg ([6]; Mus musculus, Colon 26, 504 h, ip, 2.21 mg/kg once a day, days 1-9, day 21 or 22, read-out: Tumor growth inhibition rate IR (%)): 75%
C[C@@H]1CN(c2ccc3c(=O)c(C(=O)O)cn(-c4nccs4)c3n2)C[C@@]1(C)N (relative stereo) [Compound 12] | 0.265 µg/mL (≈ 0.688 µM) | 0.131 µg/mL (≈ 0.34 µM) | 0.101 µg/mL (≈ 0.262 µM) | 0.164 µg/mL (≈ 0.425 µM) | 0.0195 µg/mL (≈ 0.0506 µM) | – | > 75% | – | – | 75% | – | 0.146 µg/mL (≈ 0.379 µM) | 0.295 µg/mL (≈ 0.765 µM) | – | 48% | 0.125 µg/mL (≈ 0.324 µM) | – | – | – | – | inhibition in vivo at 6.25 mg/kg ([6]; Mus musculus, Colon 26, 504 h, ip, 6.25 mg/kg once a day, days 1-9, day 21 or 22, read-out: Tumor growth inhibition rate IR (%)): 84%
